# Results from patent US20230096766A1, “AMINO ACID HAVING FUNCTIONAL GROUP CAPABLE OF INTERMOLECULAR HYDROGEN BONDING, PEPTIDE COMPOUND CONTAINING SAME AND METHOD FOR PRODUCTION THEREOF” (Chugai Seiyaku Kabushiki Kaisha, priority 2018, published 2023).
# *1 amine or outer side, *2 acyl side, *3 side chain or, on linkers, in order; H or OH if unused. Where a SMILES comes first, the peptide text is derived from it. Bridges are numbered along the chain shown (N, C = ends). [ ]: non-standard residue; d: D form. The star is where a group is joined. ξ: configuration not given here. Phe(3-OMe,4-CONHMe) = CNC(=O)c1ccc(C[C@H](N)C(=O)O)cc1OC; NMePhe(3-Cl) = CN[C@@H](Cc1cccc(Cl)c1)C(=O)O; X7 = O=C(C[C@H](COCCO)N[*:1])[*:2]; NMeF = CN[C@@H](Cc1ccccc1)C(=O)O; NMeGABA = CN(CCCC(=O)[*:2])[*:1]; NMeI = CC[C@H](C)[C@H](NC)C(=O)O; NMeL = CN[C@@H](CC(C)C)C(=O)O; Thr(3ξ) = CC(O)[C@H](N)C(=O)O; NMeV = CN[C@H](C(=O)O)C(C)C; Piperidide = C1CCN(*)CC1; NBuGly = CCCCNCC(=O)O; NPrGly = CCCNCC(=O)O; Sar = CNCC(=O)O; tBu = CC(C)(C)*
# Test: in vitro
# Conditions: human, Caco-2, Caco-2 (cm/sec)
row,SMILES,Papp [×10⁻⁶ cm/s]
1,CCCCN1CC(=O)N(C)[C@@H](CC(C)C)C(=O)N[C@@H](COCCO)CC(=O)N(C)[C@@H](Cc2ccccc2)C(=O)N(C)[C@@H](CC(C)C)C(=O)N[C@H](C(=O)N2CCCCC2)CC(=O)N[C@H](CC(C)C)C(=O)N(C)[C@@H](CC(C)C)C(=O)N[C@@H](Cc2ccccc2)C(=O)N(C)[C@@H](CC(C)C)C(=O)N[C@@H]([C@@H](C)O)C1=O [AP21] ([dL][NMeL]F[NMeL]T[NBuGly][NMeL][X7][NMeF][NMeL]D-Piperidide; lactam N-11),0.21
2,CC[C@H](C)[C@@H]1NC(=O)[C@H](CC(C)C)N(C)C(=O)CCCN(C)C(=O)C[C@@H](C(=O)N2CCCCC2)NC(=O)[C@H](CC(C)C)N(C)C(=O)[C@H](CC(C)C)N(C)C(=O)[C@H]([C@@H](C)O)NC(=O)[C@H](CC(C)C)N(C)C(=O)C[C@H](COCCO)NC(=O)[C@H](CC(C)C)N(C)C(=O)[C@H](Cc2cccc(Cl)c2)N(C)C1=O [AP22] ([NMeGABA][NMeL]I[NMePhe(3-Cl)][NMeL][X7][NMeL]T[NMeL][NMeL]D-Piperidide; lactam N-11),0.23
3,CCCCN1CC(=O)N(C)[C@@H](CC(C)C)C(=O)N[C@H](C(=O)N2CCCCC2)CC(=O)N(C)[C@@H](CC(C)C)C(=O)N[C@@H](COCCO)CC(=O)N(C)[C@@H](CC(C)C)C(=O)N(C)[C@@H](Cc2ccccc2)C(=O)N[C@@H](CC(C)C)C(=O)N(C)[C@@H](Cc2ccccc2)C(=O)N(C)[C@@H](CC(C)C)C(=O)N[C@@H]([C@@H](C)O)C1=O [AP23] ([NMeL][X7][NMeL][NMeF]L[NMeF][NMeL]T[NBuGly][NMeL]D-Piperidide; lactam N-11),0.43
4,CCCN1CC(=O)N(C)[C@@H](CC(C)C)C(=O)N[C@H](C(=O)N2CCCCC2)CC(=O)N(C)[C@@H](CC(C)C)C(=O)N[C@@H](Cc2ccccc2)C(=O)N(C)[C@@H](CC(C)C)C(=O)N(C)[C@@H](CC(C)C)C(=O)N[C@@H](COCCO)CC(=O)N(C)[C@@H](Cc2ccccc2)C(=O)N(C)[C@@H](CC(C)C)C(=O)N[C@@H]([C@@H](C)O)C1=O [AP24] ([NMeL]F[NMeL][NMeL][X7][NMeF][NMeL]T[NPrGly][NMeL]D-Piperidide; lactam N-11),0.42
5,CCCCN1CC(=O)N(C)[C@@H](Cc2ccccc2)C(=O)N[C@@H](COCCO)CC(=O)N(C)[C@@H](CC(C)C)C(=O)N[C@@H]([C@@H](C)O)C(=O)N(CCC)CC(=O)N(C)[C@@H](Cc2ccccc2)C(=O)N(C)[C@@H](CC(C)C)C(=O)N[C@@H](CC(C)C)C(=O)N(C)[C@@H](CC(C)C)C(=O)N[C@H](C(=O)N2CCCCC2)CC1=O [AP25] ([NBuGly][NMeF][X7][NMeL]T[NPrGly][NMeF][NMeL]L[NMeL]D-Piperidide; lactam N-11),0.62
6,CCCCN1CC(=O)N(C)[C@@H](Cc2ccccc2)C(=O)N[C@@H]([C@@H](C)CC)C(=O)N(C)[C@@H](CC(C)C)C(=O)N[C@@H](C(C)O)C(=O)N(CCC)CC(=O)N(C)[C@@H](Cc2ccccc2)C(=O)N(C)[C@@H](CC(C)C)C(=O)N[C@@H](COCCO)CC(=O)N(C)[C@@H](CC(C)C)C(=O)N[C@H](C(=O)N2CCCCC2)CC1=O (stereo partly drawn) [AP26] ([NBuGly][NMeF]I[NMeL][Thr(3ξ)][NPrGly][NMeF][NMeL][X7][NMeL]D-Piperidide; lactam N-11),0.37
7,"CCCCN1CC(=O)N(C)[C@@H](CC(C)C)C(=O)N[C@@H](COC(C)(C)C)C(=O)N(C)[C@@H](Cc2ccccc2)C(=O)N(C)[C@@H](CC(C)C)C(=O)N[C@H](C(=O)N2CCCCC2)CC(=O)N[C@H](C(C)C)C(=O)N(C)[C@@H](C(C)C)C(=O)N[C@@H](Cc2ccc(C(=O)NC)c(OC)c2)C(=O)N(C)[C@@H](CC(C)C)C(=O)N[C@@H]([C@@H](C)O)C1=O [AP27] ([dV][NMeV][Phe(3-OMe,4-CONHMe)][NMeL]T[NBuGly][NMeL]S(tBu)[NMeF][NMeL]D-Piperidide; lactam N-11)",0.91
8,"CCCCN1CC(=O)N(C)[C@@H](CC(C)C)C(=O)N[C@@H](Cc2ccc(C(=O)NC)c(OC)c2)C(=O)N(C)[C@@H](CC(C)C)C(=O)N(C)[C@@H](CC(C)C)C(=O)N[C@H](C(=O)N2CCCCC2)CC(=O)N[C@H](CC(C)C)C(=O)N(C)[C@@H](Cc2ccccc2)C(=O)N[C@@H](C(C)C)C(=O)N(C)[C@@H](CC(C)C)C(=O)N[C@@H]([C@@H](C)O)C1=O [AP28] ([dL][NMeF]V[NMeL]T[NBuGly][NMeL][Phe(3-OMe,4-CONHMe)][NMeL][NMeL]D-Piperidide; lactam N-11)",0.38
9,"CCCCN1CC(=O)N(C)[C@@H](CC(C)C)C(=O)N[C@@H](COC(C)(C)C)C(=O)N(C)[C@@H]([C@@H](C)CC)C(=O)N(C)[C@@H](CC(C)C)C(=O)N[C@H](C(=O)N2CCCCC2)CC(=O)N[C@H](C)C(=O)N(C)[C@@H](Cc2ccccc2)C(=O)N[C@@H](Cc2ccc(C(=O)NC)c(OC)c2)C(=O)N(C)[C@@H](CC(C)C)C(=O)N[C@@H]([C@@H](C)O)C1=O [AP29] ([dA][NMeF][Phe(3-OMe,4-CONHMe)][NMeL]T[NBuGly][NMeL]S(tBu)[NMeI][NMeL]D-Piperidide; lactam N-11)",0.36
10,"CC[C@H](C)[C@@H]1NC(=O)[C@H](CC(C)C)N(C)C(=O)CCCN(C)C(=O)C[C@@H](C(=O)N2CCCCC2)NC(=O)[C@H](CC(C)C)N(C)C(=O)[C@H](CC(C)C)N(C)C(=O)[C@H]([C@@H](C)O)NC(=O)[C@H](CC(C)C)N(C)C(=O)[C@H](Cc2ccc(C(=O)NC)c(OC)c2)NC(=O)[C@H](CC(C)C)N(C)C(=O)[C@H](Cc2ccccc2)N(C)C1=O [AP30] ([NMeGABA][NMeL]I[NMeF][NMeL][Phe(3-OMe,4-CONHMe)][NMeL]T[NMeL][NMeL]D-Piperidide; lactam N-11)",0.19
11,"CNC(=O)c1ccc(C[C@@H]2NC(=O)[C@H](CC(C)C)N(C)C(=O)[C@H](CC(C)C)N(C)C(=O)[C@H](CC(C)C)NC(=O)[C@H](CC(C)C)N(C)C(=O)C[C@@H](C(=O)N3CCCCC3)NC(=O)[C@H](CC(C)C)N(C)C(=O)CN(C)C(=O)[C@H](C(C)O)NC(=O)[C@H](C(C)C)N(C)C(=O)[C@H](CC(C)C)N(C)C2=O)cc1OC (stereo partly drawn) [AP32] ([NMeL]L[NMeL][NMeL][Phe(3-OMe,4-CONHMe)][NMeL][NMeV][Thr(3ξ)][Sar][NMeL]D-Piperidide; lactam N-11)",1.3
12,"CCCCN1CC(=O)N(C)[C@@H](CC(C)C)C(=O)N(C)[C@@H](CC(C)C)C(=O)N[C@@H](COC(C)(C)C)C(=O)N(C)[C@@H](CC(C)C)C(=O)N[C@H](C(=O)N2CCCCC2)CC(=O)N(C)CC(=O)N(C)[C@@H](Cc2cccc(Cl)c2)C(=O)N[C@@H](Cc2ccc(C(=O)NC)c(OC)c2)C(=O)N(C)[C@@H](CC(C)C)C(=O)N[C@@H]([C@@H](C)O)C1=O [AP33] ([Sar][NMePhe(3-Cl)][Phe(3-OMe,4-CONHMe)][NMeL]T[NBuGly][NMeL][NMeL]S(tBu)[NMeL]D-Piperidide; lactam N-11)",0.61
13,"CC[C@H](C)[C@@H]1NC(=O)[C@H](CC(C)C)N(C)C(=O)CN(C)C(=O)C[C@@H](C(=O)N2CCCCC2)NC(=O)[C@H](CC(C)C)N(C)C(=O)[C@H](Cc2ccc(C(=O)NC)c(OC)c2)NC(=O)[C@H](CC(C)C)N(C)C(=O)[C@H](Cc2cccc(Cl)c2)N(C)C(=O)CN(C)C(=O)[C@H]([C@@H](C)O)NC(=O)[C@H](CC(C)C)N(C)C1=O [AP34] ([Sar][NMeL]I[NMeL]T[Sar][NMePhe(3-Cl)][NMeL][Phe(3-OMe,4-CONHMe)][NMeL]D-Piperidide; lactam N-11)",0.2
